# Data reported in paper PMC5762315, “Inhibition of polo-like kinase 4 (PLK4): a new therapeutic option for rhabdoid tumors and pediatric medulloblastoma” (Oncotarget, 2017).
# Where “and” joins values, the source holds several entries; their conditions need not be identical. Identical values can stand only once.
# Key:
# Assay in all cases: LanthaScreen Eu Kinase Binding Assay, panel of 486 biochemical kinase assays
# various kinases [1] = molecular target: T1, various kinases (Homo sapiens, UniProt Q9H2K8); details: kinase TAOK3 (JIK); LanthaScreen Binding
# T1 sequence (Q9H2K8 1-898): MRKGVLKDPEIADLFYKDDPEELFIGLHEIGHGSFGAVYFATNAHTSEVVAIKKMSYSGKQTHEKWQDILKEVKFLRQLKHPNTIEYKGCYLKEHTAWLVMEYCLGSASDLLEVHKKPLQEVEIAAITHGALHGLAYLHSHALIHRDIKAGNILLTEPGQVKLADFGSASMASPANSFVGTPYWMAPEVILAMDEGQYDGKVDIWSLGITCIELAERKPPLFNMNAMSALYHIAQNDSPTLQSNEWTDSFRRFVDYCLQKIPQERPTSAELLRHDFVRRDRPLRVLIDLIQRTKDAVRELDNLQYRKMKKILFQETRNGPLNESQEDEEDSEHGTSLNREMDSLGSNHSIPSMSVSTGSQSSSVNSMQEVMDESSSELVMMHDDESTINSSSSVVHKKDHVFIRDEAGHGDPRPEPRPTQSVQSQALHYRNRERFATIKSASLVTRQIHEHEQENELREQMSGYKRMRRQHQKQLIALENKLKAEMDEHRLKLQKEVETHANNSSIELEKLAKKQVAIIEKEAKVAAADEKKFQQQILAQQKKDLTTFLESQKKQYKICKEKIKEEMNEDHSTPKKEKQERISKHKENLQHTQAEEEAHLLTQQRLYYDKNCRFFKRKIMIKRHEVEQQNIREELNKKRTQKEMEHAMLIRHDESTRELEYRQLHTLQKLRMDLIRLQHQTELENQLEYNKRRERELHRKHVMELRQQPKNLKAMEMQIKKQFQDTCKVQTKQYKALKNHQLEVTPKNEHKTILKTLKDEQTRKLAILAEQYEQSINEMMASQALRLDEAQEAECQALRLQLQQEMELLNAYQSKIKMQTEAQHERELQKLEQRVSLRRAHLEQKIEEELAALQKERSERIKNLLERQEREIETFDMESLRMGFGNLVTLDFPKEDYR
# various kinases [2] = molecular target: various kinases (Homo sapiens, UniProt P57059); details: kinase SIK1; LanthaScreen Binding
# various kinases [3] = molecular target: various kinases (Homo sapiens, UniProt Q02750, S218D/S222D); details: MAP2K1 (MEK1) S218D S222D
# various kinases [4] = molecular target: various kinases (Homo sapiens, UniProt Q92630); details: DYRK2
# various kinases [5] = molecular target: various kinases (Homo sapiens, UniProt P10721, D820E); details: KIT D820E
# various kinases [6] = molecular target: various kinases (Homo sapiens, UniProt Q9BYP7); details: kinase WNK3; LanthaScreen Binding
# various kinases [7] = molecular target: T2, various kinases (Homo sapiens, UniProt P42680); details: kinase TEC; LanthaScreen Binding
# T2 sequence (P42680 1-631): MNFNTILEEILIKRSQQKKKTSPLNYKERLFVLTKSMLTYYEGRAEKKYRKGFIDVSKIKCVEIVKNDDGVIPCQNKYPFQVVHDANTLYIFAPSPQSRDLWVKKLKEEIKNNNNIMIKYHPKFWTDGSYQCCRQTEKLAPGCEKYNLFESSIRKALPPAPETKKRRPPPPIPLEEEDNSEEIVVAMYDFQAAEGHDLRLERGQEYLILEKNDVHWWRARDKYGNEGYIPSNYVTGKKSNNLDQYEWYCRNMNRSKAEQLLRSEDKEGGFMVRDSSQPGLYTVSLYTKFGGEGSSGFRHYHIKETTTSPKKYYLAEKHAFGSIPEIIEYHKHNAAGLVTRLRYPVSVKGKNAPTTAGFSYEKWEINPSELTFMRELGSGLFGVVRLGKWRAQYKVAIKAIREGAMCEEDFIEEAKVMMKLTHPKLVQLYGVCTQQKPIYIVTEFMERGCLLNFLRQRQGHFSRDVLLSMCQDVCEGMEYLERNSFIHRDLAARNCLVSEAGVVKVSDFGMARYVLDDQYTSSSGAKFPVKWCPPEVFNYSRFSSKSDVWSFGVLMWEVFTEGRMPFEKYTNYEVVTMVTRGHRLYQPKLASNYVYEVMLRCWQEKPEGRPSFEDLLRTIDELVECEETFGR
# various kinases [8] = molecular target: various kinases (Homo sapiens, UniProt Q86UX6); details: kinase STK32C (YANK3); LanthaScreen Binding
# various kinases [9] = molecular target: various kinases (Homo sapiens, UniProt Q15835); details: GRK1
# various kinases [10] = molecular target: various kinases (Homo sapiens, UniProt P22607, G697C); details: FGFR3 G697C
# various kinases [11] = molecular target: various kinases (Homo sapiens, UniProt Q9BWU1)
# various kinases [12] = molecular target: various kinases (Homo sapiens, UniProt Q9Y572); details: kinase RIPK3; LanthaScreen Binding
# various kinases [13] = molecular target: various kinases (Homo sapiens, UniProt P10721, T670I/V559D); details: KIT V559D T670I
# various kinases [14] = molecular target: various kinases (Homo sapiens, UniProt Q15375); details: EPHA7
# various kinases [15] = molecular target: various kinases (Homo sapiens, UniProt Q16584); details: MAP3K11 (MLK3)
# various kinases [16] = molecular target: various kinases (Homo sapiens, UniProt Q9NYL2); details: kinase ZAK; LanthaScreen Binding
# various kinases [17] = molecular target: various kinases (Homo sapiens, UniProt P00519, H396P); details: ABL1 H396P
# various kinases [18] = molecular target: various kinases (Homo sapiens, UniProt Q16513); details: kinase PKN2 (PRK2); LanthaScreen Binding
# Chain of various kinases (Homo sapiens, UniProt Q16513) (Q16513 whole entry): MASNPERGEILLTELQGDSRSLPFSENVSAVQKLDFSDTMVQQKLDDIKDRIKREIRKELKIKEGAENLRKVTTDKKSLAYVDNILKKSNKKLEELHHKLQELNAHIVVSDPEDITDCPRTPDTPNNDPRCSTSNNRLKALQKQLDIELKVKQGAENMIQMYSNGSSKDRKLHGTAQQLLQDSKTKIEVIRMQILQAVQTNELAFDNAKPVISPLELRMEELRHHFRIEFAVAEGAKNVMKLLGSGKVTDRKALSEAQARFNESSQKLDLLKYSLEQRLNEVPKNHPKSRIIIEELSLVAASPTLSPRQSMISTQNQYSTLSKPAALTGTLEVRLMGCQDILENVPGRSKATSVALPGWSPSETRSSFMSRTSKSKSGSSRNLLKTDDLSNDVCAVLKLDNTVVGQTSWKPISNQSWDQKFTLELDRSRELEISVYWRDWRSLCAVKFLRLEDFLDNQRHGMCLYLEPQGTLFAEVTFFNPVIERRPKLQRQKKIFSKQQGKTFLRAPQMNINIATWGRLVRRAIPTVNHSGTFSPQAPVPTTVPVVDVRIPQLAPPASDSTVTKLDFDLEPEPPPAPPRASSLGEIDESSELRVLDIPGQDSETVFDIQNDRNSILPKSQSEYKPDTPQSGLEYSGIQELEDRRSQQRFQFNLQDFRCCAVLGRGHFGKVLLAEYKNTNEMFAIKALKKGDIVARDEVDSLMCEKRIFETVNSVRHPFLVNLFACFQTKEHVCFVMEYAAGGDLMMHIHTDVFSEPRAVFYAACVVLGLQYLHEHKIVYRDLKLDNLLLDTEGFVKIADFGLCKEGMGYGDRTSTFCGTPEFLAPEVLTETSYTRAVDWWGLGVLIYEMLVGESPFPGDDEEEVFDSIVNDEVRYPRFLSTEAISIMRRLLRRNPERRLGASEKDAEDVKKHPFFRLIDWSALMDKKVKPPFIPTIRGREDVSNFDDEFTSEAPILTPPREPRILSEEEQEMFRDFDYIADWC
# Chain of various kinases (Homo sapiens, UniProt Q9NYL2) (Q9NYL2 whole entry): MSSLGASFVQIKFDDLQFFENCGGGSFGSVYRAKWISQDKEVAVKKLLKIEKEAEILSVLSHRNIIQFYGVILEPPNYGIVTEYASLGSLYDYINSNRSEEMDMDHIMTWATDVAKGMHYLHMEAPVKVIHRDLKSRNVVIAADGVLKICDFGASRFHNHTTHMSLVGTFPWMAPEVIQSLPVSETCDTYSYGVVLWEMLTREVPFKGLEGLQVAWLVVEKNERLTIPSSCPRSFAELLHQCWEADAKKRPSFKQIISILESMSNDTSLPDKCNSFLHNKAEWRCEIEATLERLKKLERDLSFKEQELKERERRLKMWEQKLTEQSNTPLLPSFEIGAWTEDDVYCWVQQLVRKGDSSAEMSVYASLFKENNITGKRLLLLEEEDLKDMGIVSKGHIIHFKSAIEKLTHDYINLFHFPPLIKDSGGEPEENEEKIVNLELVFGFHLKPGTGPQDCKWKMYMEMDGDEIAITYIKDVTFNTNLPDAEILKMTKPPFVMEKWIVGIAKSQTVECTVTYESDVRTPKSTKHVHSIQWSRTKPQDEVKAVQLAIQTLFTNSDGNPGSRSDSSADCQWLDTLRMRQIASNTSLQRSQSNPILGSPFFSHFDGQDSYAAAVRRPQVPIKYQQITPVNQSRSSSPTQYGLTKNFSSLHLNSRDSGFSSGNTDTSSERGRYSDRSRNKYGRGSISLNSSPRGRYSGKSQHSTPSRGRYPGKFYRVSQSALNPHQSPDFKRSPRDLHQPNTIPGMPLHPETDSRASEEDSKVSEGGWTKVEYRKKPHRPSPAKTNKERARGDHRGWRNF
# Chain of various kinases (Homo sapiens, UniProt Q86UX6) (Q86UX6 whole entry): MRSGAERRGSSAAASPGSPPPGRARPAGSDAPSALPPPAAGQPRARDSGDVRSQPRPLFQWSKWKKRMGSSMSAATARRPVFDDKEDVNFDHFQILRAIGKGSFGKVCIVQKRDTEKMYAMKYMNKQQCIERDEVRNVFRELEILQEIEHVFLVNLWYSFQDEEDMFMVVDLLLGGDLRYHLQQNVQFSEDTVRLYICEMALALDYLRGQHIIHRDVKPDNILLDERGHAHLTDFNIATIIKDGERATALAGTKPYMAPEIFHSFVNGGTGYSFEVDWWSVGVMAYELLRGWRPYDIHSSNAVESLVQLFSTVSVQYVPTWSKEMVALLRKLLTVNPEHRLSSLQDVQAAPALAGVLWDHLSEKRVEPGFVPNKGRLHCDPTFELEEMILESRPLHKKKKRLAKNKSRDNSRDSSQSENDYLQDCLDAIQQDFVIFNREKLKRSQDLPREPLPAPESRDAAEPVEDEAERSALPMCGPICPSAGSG
# Chain of various kinases (Homo sapiens, UniProt Q9BWU1) (Q9BWU1 whole entry): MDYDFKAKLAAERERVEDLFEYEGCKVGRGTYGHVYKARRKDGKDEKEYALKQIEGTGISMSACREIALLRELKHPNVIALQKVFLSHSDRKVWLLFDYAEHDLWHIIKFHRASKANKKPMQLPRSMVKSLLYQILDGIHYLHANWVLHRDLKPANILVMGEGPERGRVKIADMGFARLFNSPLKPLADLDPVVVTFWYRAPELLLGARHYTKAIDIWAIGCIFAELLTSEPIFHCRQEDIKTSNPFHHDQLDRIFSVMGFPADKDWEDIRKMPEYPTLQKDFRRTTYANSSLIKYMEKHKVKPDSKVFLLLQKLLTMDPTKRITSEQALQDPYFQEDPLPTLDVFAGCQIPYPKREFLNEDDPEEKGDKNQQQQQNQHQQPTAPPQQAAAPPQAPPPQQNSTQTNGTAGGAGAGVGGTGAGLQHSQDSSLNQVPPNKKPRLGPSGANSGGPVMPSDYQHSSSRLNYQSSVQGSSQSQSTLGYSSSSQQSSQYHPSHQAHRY
# Chain of various kinases (Homo sapiens, UniProt Q9Y572) (Q9Y572 whole entry): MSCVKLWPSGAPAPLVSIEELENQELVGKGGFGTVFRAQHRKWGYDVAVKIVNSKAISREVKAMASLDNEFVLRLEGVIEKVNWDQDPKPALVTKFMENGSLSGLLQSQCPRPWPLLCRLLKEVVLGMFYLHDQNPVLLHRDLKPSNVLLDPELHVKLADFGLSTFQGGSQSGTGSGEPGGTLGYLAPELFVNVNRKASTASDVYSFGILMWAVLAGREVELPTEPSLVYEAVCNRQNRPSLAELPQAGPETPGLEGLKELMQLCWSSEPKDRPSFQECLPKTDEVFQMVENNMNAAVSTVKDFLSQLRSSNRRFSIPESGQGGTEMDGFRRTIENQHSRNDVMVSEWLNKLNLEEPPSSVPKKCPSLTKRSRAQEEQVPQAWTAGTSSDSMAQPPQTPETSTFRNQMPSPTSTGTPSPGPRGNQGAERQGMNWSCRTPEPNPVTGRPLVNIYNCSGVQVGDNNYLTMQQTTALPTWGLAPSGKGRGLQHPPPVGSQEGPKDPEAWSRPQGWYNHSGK
# Chain of various kinases (Homo sapiens, UniProt Q9BYP7) (Q9BYP7 whole entry): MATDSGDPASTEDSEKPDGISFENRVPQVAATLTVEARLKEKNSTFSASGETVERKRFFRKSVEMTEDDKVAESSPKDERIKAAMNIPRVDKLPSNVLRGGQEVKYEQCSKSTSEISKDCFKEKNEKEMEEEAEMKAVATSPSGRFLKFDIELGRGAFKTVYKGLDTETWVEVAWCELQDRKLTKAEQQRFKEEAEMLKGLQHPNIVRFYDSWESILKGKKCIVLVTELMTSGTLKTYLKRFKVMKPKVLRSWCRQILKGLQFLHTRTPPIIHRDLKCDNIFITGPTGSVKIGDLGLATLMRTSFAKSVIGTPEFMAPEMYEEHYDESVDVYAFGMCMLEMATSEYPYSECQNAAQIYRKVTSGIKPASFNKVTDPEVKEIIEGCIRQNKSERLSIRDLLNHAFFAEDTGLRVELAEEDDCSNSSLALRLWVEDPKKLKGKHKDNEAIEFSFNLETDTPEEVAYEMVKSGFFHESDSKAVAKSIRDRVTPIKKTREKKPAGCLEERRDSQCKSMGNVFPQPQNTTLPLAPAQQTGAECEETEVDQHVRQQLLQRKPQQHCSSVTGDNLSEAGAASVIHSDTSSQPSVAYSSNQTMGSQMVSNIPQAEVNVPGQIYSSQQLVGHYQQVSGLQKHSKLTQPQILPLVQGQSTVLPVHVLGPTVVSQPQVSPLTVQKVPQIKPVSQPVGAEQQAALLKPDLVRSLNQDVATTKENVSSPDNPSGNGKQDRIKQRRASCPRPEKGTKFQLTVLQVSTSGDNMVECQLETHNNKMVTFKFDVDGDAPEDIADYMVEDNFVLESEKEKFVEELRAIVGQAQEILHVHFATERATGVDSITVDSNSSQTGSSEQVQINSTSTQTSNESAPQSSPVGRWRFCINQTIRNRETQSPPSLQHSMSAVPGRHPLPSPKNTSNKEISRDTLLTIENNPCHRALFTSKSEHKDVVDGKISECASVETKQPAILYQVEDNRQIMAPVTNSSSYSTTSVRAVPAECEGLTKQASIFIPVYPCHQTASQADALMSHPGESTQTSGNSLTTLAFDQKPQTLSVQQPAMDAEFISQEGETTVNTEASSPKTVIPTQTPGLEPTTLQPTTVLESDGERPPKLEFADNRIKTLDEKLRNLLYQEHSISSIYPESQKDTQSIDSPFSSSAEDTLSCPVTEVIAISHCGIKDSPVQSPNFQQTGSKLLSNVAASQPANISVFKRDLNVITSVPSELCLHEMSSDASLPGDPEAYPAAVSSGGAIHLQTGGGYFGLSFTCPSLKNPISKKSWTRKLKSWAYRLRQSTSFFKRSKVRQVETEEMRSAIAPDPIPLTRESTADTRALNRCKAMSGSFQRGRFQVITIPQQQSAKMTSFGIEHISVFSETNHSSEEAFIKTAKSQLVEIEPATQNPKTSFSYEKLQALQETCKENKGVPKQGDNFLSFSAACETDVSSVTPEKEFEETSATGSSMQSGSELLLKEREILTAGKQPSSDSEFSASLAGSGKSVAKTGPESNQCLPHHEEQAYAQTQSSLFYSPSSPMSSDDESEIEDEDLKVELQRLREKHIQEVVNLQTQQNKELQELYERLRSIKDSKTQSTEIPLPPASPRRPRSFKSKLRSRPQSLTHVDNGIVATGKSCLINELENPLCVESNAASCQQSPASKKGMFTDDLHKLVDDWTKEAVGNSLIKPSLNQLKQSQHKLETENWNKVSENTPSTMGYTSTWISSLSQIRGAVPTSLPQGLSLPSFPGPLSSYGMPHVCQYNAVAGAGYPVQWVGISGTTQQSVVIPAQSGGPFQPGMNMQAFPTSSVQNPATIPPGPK
smiles,measurement,setting,value
COc1ccc2c(c1)[C@]1(C[C@H]1c1ccc3c(/C=C/c4ccc(CN5C[C@@H](C)O[C@@H](C)C5)cc4)n[nH]c3c1)C(=O)N2 [CFI-400945],% Inhibition Average,various kinases [1],10%
same,% Inhibition Duplicate #1,various kinases [1],14%
same,% Inhibition Duplicate #2,various kinases [1],6%
same,% Inhibition Average,various kinases [2],6%
same,% Inhibition Duplicate #1,various kinases [2],5%
same,% Inhibition Duplicate #2,various kinases [2],6%
same,% Inhibition,various kinases [3],4% and 10%
same,% Inhibition,various kinases [4],1% and 10%
same,% Inhibition,various kinases [5],3% and 4%
same,% Inhibition Average,various kinases [6],-2%
same,% Inhibition Duplicate #1,various kinases [6],-2%
same,% Inhibition Duplicate #2,various kinases [6],-1%
same,% Inhibition Average,various kinases [7],-1%
same,% Inhibition Duplicate #1,various kinases [7],1%
same,% Inhibition Duplicate #2,various kinases [7],-3%
same,% Inhibition Average,various kinases [8],15%
same,% Inhibition Duplicate #1,various kinases [8],14%
same,% Inhibition Duplicate #2,various kinases [8],17%
same,% Inhibition,various kinases [9],22% and 13%
same,% Inhibition,various kinases [10],30% and 40%
same,% Inhibition,various kinases [11]; CDK11 (Inactive),-3% and -1%
same,% Inhibition,various kinases [11]; CDK11/cyclin C,16% and 13%
same,% Inhibition Average,various kinases [12],11%
same,% Inhibition Duplicate #1,various kinases [12],11%
same,% Inhibition Duplicate #2,various kinases [12],11%
same,% Inhibition,various kinases [13],10%
same,% Inhibition,various kinases [14],-4% and 5%
same,% Inhibition,various kinases [15],7% and -2%
same,% Inhibition Average,various kinases [16],-1%
same,% Inhibition Duplicate #1,various kinases [16],-1%
same,% Inhibition Duplicate #2,various kinases [16],-1%
same,% Inhibition,various kinases [17],72% and 73%
same,% Inhibition Average,various kinases [18],50%
same,% Inhibition Duplicate #1,various kinases [18],48%
same,% Inhibition Duplicate #2,various kinases [18],51%
